Source: ChEMBL document CHEMBL4699594, “Antiplasmodial Alkaloids from the Australian Bryozoan Amathia lamourouxi” (J Nat Prod, 2020)
Calls of active or inactive are those of the source. The calls are words filed in the database; no cut-off is given here.

Tests used:
Plasmodium falciparum [1] = assay: Antiplasmodial activity against chloroquine-sensitive Plasmodium falciparum 3D7 ring stage incubated for 72 hrs by DAPI-staining based imaging analysis; format: functional, organism-based; conditions: 3D7, 72 h
HEK293 [2] = assay: Cytotoxicity against human HEK293 cells assessed as reduction in cell viability after 72 hrs by resazurin dye based assay; conditions: HEK293, 72 h
[3] = Selectivity index, ratio of IC50 for cytotoxicity against human HEK293 cells to IC50 for antiplasmodial activity against chloroquine-sensitive Plasmodium falciparum 3D7 ring stage; format: toxicity, cell-based; conditions: read-out: Ratio IC50
Plasmodium falciparum [4] = assay: Antiplasmodial activity against chloroquine-resistant Plasmodium falciparum Dd2 ring stage incubated for 72 hrs by DAPI-staining based imaging analysis; format: functional, organism-based; conditions: Dd2, 72 h
[5] = Selectivity index, ratio of IC50 for cytotoxicity against human HEK293 cells to IC50 for antiplasmodial activity against chloroquine-resistant Plasmodium falciparum Dd2 ring stage; format: toxicity, cell-based; conditions: read-out: Ratio IC50
HEK293 [6] = assay: Cytotoxicity against human HEK293 cells assessed as reduction in cell viability at 40 uM after 72 hrs by resazurin dye based assay; conditions: hek293, 72 h
Plasmodium falciparum [7] = assay: Antiplasmodial activity against chloroquine-sensitive Plasmodium falciparum 3D7 ring stage at 40 uM incubated for 72 hrs by DAPI-staining based imaging analysis; format: functional, organism-based
Plasmodium falciparum [8] = assay: Antiplasmodial activity against chloroquine-resistant Plasmodium falciparum Dd2 ring stage at 40 uM incubated for 72 hrs by DAPI-staining based imaging analysis; format: functional, organism-based
HEK293 [9] = assay: Cytotoxicity against human HEK293 cells assessed as reduction in cell viability at 0.1 uM after 72 hrs by resazurin dye based assay; conditions: hek293, 72 h
HEK293 [10] = assay: Cytotoxicity against human HEK293 cells assessed as reduction in cell viability at 4 uM after 72 hrs by resazurin dye based assay relative to control; conditions: hek293, 72 h

| Compound | IC50 (Plasmodium falciparum [1]) | IC50 (HEK293 [2]) | selectivity ratio [3] | IC50 (Plasmodium falciparum [4]) | selectivity ratio [5] | Activity (HEK293 [6]) | Activity (Plasmodium falciparum [7]) | Activity (Plasmodium falciparum [8]) | Activity (HEK293 [9]) | Activity (HEK293 [10]) |
| --- | --- | --- | --- | --- | --- | --- | --- | --- | --- | --- |
| COc1cc(CCN(C)CCCN(C)C)c(Br)cc1Br | 1700 nM | 17000 nM | 10 |  |  |  |  |  |  |  |
| COc1cc(CCN(C)CCCN(C)C(=O)[C@H](CCN(C)CCc2cc(OC)c(Br)cc2Br)N(C)C)c(Br)cc1Br | 610 nM |  | 66 | 750 nM | 53 | Non-Toxic |  |  |  |  |
| CN[C@@H](CCN(C)CCc1cc(OC)c(Br)cc1Br)C(=O)N(C)CCCN(C)CCc1cc(OC)c(Br)cc1Br | 570 nM | 11000 nM | 20 | 850 nM | 13 |  |  |  |  |  |
| Cn1c(Br)c(C=O)c2cc(Br)ccc21 |  |  |  |  |  | Non-Toxic | inactive | inactive |  |  |
| C[C@H]1[C@@H](O)O[C@@H]2O[C@@]3(C)CC[C@H]4[C@H](C)CC[C@@H]1[C@@]24OO3 [ARTENIMOL] | 2 nM |  | 62 |  | 57 |  |  |  | Non-Toxic |  |
| CNCCc1cc(OC)c(Br)cc1Br.O=C(O)C(F)(F)F | 11000 nM |  | 4 |  |  | Non-Toxic |  |  |  |  |
| CN[C@@H](CCN(C)CCc1cc(OC)c(Br)cc1Br)C(=O)NCCCN(C)CCc1cc(OC)c(Br)cc1Br | 1600 nM |  | 25 | 1900 nM | 21 | Non-Toxic |  |  |  |  |
| CCN(CC)CCCC(C)Nc1ccnc2cc(Cl)ccc12 (stereo not drawn) [CHLOROQUINE] |  |  |  |  |  |  |  |  |  | 67% |
| COc1ccc(C[C@H](N)C(=O)N[C@H]2[C@@H](O)[C@H](n3cnc4c(N(C)C)ncnc43)O[C@@H]2CO)cc1 [PUROMYCIN] |  | 810 nM | 353 | 68 nM | 585 |  |  |  |  |  |
